Earlier results in US20080014271A1, “NOVEL PHARMACEUTICAL COMPOSITIONS COMPRISING LEVETIRACETAM” (UCB, S.A., priority 2006, published 2008).

Tested on: epilepsy

## CC[C@H](C(N)=O)N1CCCC1=O [(R)-(+)-alpha-ethyl-2-oxo-1-pyrrolidine acetamide]
  Activity in the treatment of epilepsy: completely lacks activity
